Test results reported in patent US9745339B2 (GRAFFINITY PHARMACEUTICALS GMBH, priority 2012, dated 2017).

What was measured:
Details in all cases: L55-73: estimated values based on the knowledge obtained from L01-L54
[1] = test system: poly-IgG from human serum (h-poly-IgG); test: Microtiter plate chromatography of resins: binding and elution of human poly-IgG
Method: (§1) Resins were assessed in packed mode by microtiter plate chromatography. For each column, approximately 30 μl of resin were transferred to a 384-well filter plate and sealed with appropriate top fits. Columns with rProtein A SEPHAROSE 4 FF and MABSORBENT A2P HF were included as controls.
(§2) Either 3.3 cv of whole IgGs dissolved at 0.5 mg ml^−1 in PBS or undiluted host cell proteins (HCP) were injected onto columns.
(§3) Unbound protein was washed from columns with 5 cv of PBS prior to elution with 5 cv of glycine buffer at pH 2.5. […] During injection of samples, speed was reduced to 10 g and centrifugation time increased to 5-10 min. Effluent fractions were collected in 384-well plates and concentrations of protein were analyzed by Bradford assay. Protein masses mi, mft and me (see below) were calculated as the product of fraction volume and measured protein concentration.
(§4) The fraction of bound protein was calculated as the difference between the total mass of protein injected mi and the mass of protein detected in the flowthrough mft, divided by the total mass of protein injected.
(§5) The yield of protein was calculated as the mass of protein eluted me, divided by the mass of protein injected mi.
(§6) The fraction of bound protein and the yield of protein were calculated for each resin based on data for whole IgG-antibodies. In the case of host cell proteins, only the fraction of bound protein is given. Selectivity of resins was calculated from data for Bevacizumab whole IgG and host cell proteins. Due to limited experimental precision, selectivity was truncated for values beyond 10.

Palivizumab = test: Microtiter plate chromatography of resins: binding and elution of Palivizumab
Method: as §1, §2, §3, §4, §5, §6

host cell proteins (HCP) = test: Microtiter plate chromatography of resins: binding of host cell proteins; parameters: species or system CHO cell culture
Method: Flowthrough from protein A chromatography (referred to as host cell proteins) was derived from the supernatant of antibody-producing CHO cell culture in serum-free medium. Coomassie brilliant blue dye reagent for Bradford assay was purchased from Thermo Scientific (Bonn/Germany).
as §1, §2, §3, §4, §6

Cetuximab = test: Microtiter plate chromatography of resins: binding and elution of Cetuximab
Method: as §1, §2, §3, §4, §5, §6

Bevacizumab = target: T1, Bevacizumab (Homo sapiens, UniProt P01857); test: Microtiter plate chromatography of resins: binding and elution of Bevacizumab
T1 construct: 0.5 mg/ml IgG in PBS pH 7.3; ligand immobilized on SEPHAR; Bevacizumab Yield; other: mass eluted (glycine pH 2.5) / mass injected; kd (dissociation constant, Langmuir isotherm); other: Bevacizumab 0.05-5 mg/ml in PBS pH 7.3, 25° C., at least 3 h; qm (maximum capacity); other: mg Bevacizumab per ml of resin; Langmuir isotherm; t0; fused on or other part: Humanized anti-VEGF-A VH domain joined N-terminally to the IGHG1 constant region (engineered, no UniProt entry)
Method: as §1, §2, §3, §4, §5
The selectivity of resins was calculated as the fraction of bound Bevacizumab antibody BAb, divided by the fraction of bound host cell proteins BHCP.
as §6

Tocilizumab = test: Microtiter plate chromatography of resins: binding and elution of Tocilizumab
Method: as §1, §2, §3, §4, §5, §6

Structure (SMILES) | h-poly-IgG Bound [1] [%] | Palivizumab Bound (Palivizumab) [%] | Cetuximab Bound (Cetuximab) [%] | Bevacizumab Bound (Bevacizumab) [%] | Bevacizumab Yield (Bevacizumab) [%] | Tocilizumab Bound (Tocilizumab) [%] | HCP Bound (host cell proteins (HCP)) [%]
NCCCn1cnc2cc(C(=O)Nc3nc(-c4ccco4)ns3)ccc21 [Ligand L55, 1-(3-Amino-1-propyl)benzimidazole-5-carboxylic acid N-[3-(2-furyl)-1,2,4-thiadiazol-5-yl] amide] | >80 | >80 | 100 | 100 | >80 | >95 | <40
NCCCn1cnc2cc(C(=O)Nc3nnc(-c4ccoc4)s3)ccc21 [Ligand L56, 1-(3-Amino-1-propyl)benzimidazole-5-carboxylic acid N-[5-(3-furyl)-1,3,4-thiadiazol-2-yl] amide] | >80 | >80 | 100 | 100 | >80 | >95 | <40
NCCCn1cnc2cc(C(=O)Nc3nc(-c4ccco4)cs3)ccc21 [Ligand L57, 1-(3-Amino-1-propyl)benzimidazole-5-carboxylic acid N-[4-(2-furyl)thiazol-2-yl] amide] | >80 | >80 | 100 | 100 | >80 | >95 | <40
NCCCn1cnc2cc(C(=O)Nc3ncc(-c4ccco4)s3)ccc21 [Ligand L58, 1-(3-Amino-1-propyl)benzimidazole-5-carboxylic acid N-[5-(2-furyl)thiazol-2-yl] amide] | >80 | >80 | 100 | 100 | >80 | >95 | <40
NCCCn1cnc2cc(C(=O)Nc3ccc(-c4ccco4)nn3)ccc21 [Ligand L59, 1-(3-Amino-1-propyl)benzimidazole-5-carboxylic acid N-[6-(2-furyl)pyridazin-3-yl] amide] | >80 | >60 | >95 | 100 | >80 | >90 | <40
Cc1nc2cc(C(=O)Nc3nc(-c4ccco4)ns3)ccc2n1CCCN [Ligand L60, 1-(3-Amino-1-propyl)-2-methylbenzimidazole-5-carboxylic acid N-[3-(2-furyl)-1,2,4-thiadiazol-5-yl] amide] | >80 | >80 | 100 | 100 | >80 | >95 | <40
Cc1nc2cc(C(=O)Nc3nnc(-c4ccoc4)s3)ccc2n1CCCN [Ligand L61, 1-(3-Amino-1-propyl)-2-methylbenzimidazole-5-carboxylic acid N-[5-(3-furyl)-1,3,4-thiadiazol-2-yl] amide] | >80 | >80 | 100 | 100 | >80 | >95 | <40
Cc1nc2cc(C(=O)Nc3nc(-c4ccco4)cs3)ccc2n1CCCN [Ligand L62, 1-(3-Amino-1-propyl)-2-methylbenzimidazole-5-carboxylic acid N-[4-(2-furyl)thiazol-2-yl] amide] | >80 | >80 | 100 | 100 | >80 | >95 | <40
Cc1nc2cc(C(=O)Nc3ncc(-c4ccco4)s3)ccc2n1CCCN [Ligand L63, 1-(3-Amino-1-propyl)-2-methylbenzimidazole-5-carboxylic acid N-[5-(2-furyl)thiazol-2-yl] amide] | >80 | >80 | 100 | 100 | >80 | >95 | <20
Cc1nc2cc(C(=O)Nc3ccc(-c4ccco4)nn3)ccc2n1CCCN [Ligand L64, 1-(3-Amino-1-propyl)-2-methylbenzimidazole-5-carboxylic acid N-[6-(2-furyl)pyridazin-3-yl] amide] | >80 | >60 | >95 | 100 | >80 | >90 | <20
CCc1nc2cc(C(=O)Nc3nc(-c4ccco4)ns3)ccc2n1CCCN [Ligand L65, 1-(3-Amino-1-propyl)-2-ethylbenzimidazole-5-carboxylic acid N-[3-(2-furyl)-1,2,4-thiadiazol-5-yl] amide] | >80 | >80 | 100 | 100 | >80 | >95 | <30

Further lines, with some results ahead:

h-poly-IgG Bound [1] [%] | Palivizumab Bound (Palivizumab) [%] | Cetuximab Bound (Cetuximab) [%] | Bevacizumab Bound (Bevacizumab) [%] | Bevacizumab Yield (Bevacizumab) [%] | Tocilizumab Bound (Tocilizumab) [%] | Structure (SMILES) | HCP Bound (host cell proteins (HCP)) [%]
>80 | >80 | 100 | 100 | >80 | >95 | CCc1nc2cc(C(=O)Nc3nnc(-c4ccoc4)s3)ccc2n1CCCN [Ligand L66, 1-(3-Amino-1-propyl)-2-ethylbenzimidazole-5-carboxylic acid N-[5-(3-furyl)-1,3,4-thiadiazol-2-yl] amide] | <30
>80 | >80 | 100 | 100 | >80 | >95 | CCc1nc2cc(C(=O)Nc3nc(-c4ccco4)cs3)ccc2n1CCCN [Ligand L67, 1-(3-Amino-1-propyl)-2-ethylbenzimidazole-5-carboxylic acid N-[4-(2-furyl)thiazol-2-yl] amide] | <30
>80 | >80 | 100 | 100 | >80 | >95 | CCc1nc2cc(C(=O)Nc3ncc(-c4ccco4)s3)ccc2n1CCCN [Ligand L68, 1-(3-Amino-1-propyl)-2-ethylbenzimidazole-5-carboxylic acid N-[5-(2-furyl)thiazol-2-yl] amide] | <30
>80 | >60 | >95 | 100 | >80 | >90 | CCc1nc2cc(C(=O)Nc3ccc(-c4ccco4)nn3)ccc2n1CCCN [Ligand L69, 1-(3-Amino-1-propyl)-2-ethylbenzimidazole-5-carboxylic acid N-[6-(2-furyl)pyridazin-3-yl]amide] | <30
>80 | >50 | >80 | 100 | >80 | >80 | NCCCNc1nc(-c2ccc(C(=O)Nc3nnc(-c4ccco4)s3)cc2)cs1 [Ligand L70, 4-[2-(3-Amino-1-propylamino)thiazol-4-yl]benzoic acid N-[5-(2-furyl)-1,3,4-thiadiazol-2-yl]amide] | <40
>80 | >60 | >95 | 100 | >80 | >90 | Cc1nc2cc(C(=O)Nc3nnc(-c4ccno4)s3)ccc2n1CCCN [Ligand L71, 1-(3-Amino-1-propyl)-2-methylbenzimidazole-5-carboxylic acid N-[5-(5-isoxazolyl)-1,3,4-thiadiazol-2-yl] amide] | <20
>80 | >60 | >95 | 100 | >80 | >90 | Cc1nc2cc(C(=O)Nc3nnc(-c4cnco4)s3)ccc2n1CCCN [Ligand L72, 1-(3-Amino-1-propyl)-2-methylbenzimidazole-5-carboxylic acid N-[5-(5-oxazolyl)-1,3,4-thiadiazol-2-yl] amide] | <20
